Results taken from US10206906B2, “Synergistic combination of a phenolic-rich maple syrup extract and an antibiotic” (priority 2015, dated 2019).

Assays:
[1] = test system: P. mirabilis HI4320; assay: Checkerboard microdilution assay (growth inhibition synergy); assay type: cell-based, Proteus mirabilis
Experimental: (§1) The checkerboard microdilution assay is used for evaluation of in vitro antimicrobial synergy between two compounds (i.e., antibiotic/PRMSE, antibiotic/pure phenolic compound, and pure phenolic compounds with each other). Two-fold serial dilutions are prepared in MHB-II for each of the two compounds under study. The serial dilutions are then loaded into 96 well plates to achieve combinations having different concentrations of each of the two compounds. Each well is subsequently inoculated with 10^6 CFU mL^−1 of the desired bacterial strain and incubated at 37° C. for 18 h under static conditions. The Fractional Inhibitory Concentration Index (FICI) for each combination is calculated by using the following formula: FICcomponent 1=MICcomponent 1, in combination/MICcomponent 1,alone FICI=FICcomponent 1+FICcomponent 2
(§2) The FICIs are interpreted as follows: FICI of […] (synergy); 0.5<FICI ≤1 (no interaction/indifference); FICI of >4 (antagonism).

[2] = test system: P. aeruginosa PA14; assay: as above; assay type: cell-based, Pseudomonas aeruginosa
Experimental: as §1, §2

[3] = test system: P. aeruginosa PAO1; assay: as above; assay type: cell-based, Pseudomonas aeruginosa
Experimental: as §1, §2

[4] = test system: outer membrane of P. aeruginosa PA14; assay: Outer membrane permeabilization, NPN uptake assay; assay type: cell-based, Pseudomonas aeruginosa; conditions: sub-MIC; concentration giving maximal increase in NPN uptake
Experimental: (§3) The cells are harvested, washed with 5 mM HEPES buffer (pH 7.2), and resuspended in the same volume (10 mL) of 5 mM HEPES buffer (pH 7.2) containing 1 mM N-ethylmaleimide (NEM, Sigma-Aldrich Canada). Aliquots (1 mL) are mixed with NPN to a final concentration of 10 μM (in cell suspension) and fluorescence is measured using the microplate reader (ex/em 350/420 nm).

[5] = test system: outer membrane of P. aeruginosa PAO1; assay: Outer membrane permeabilization, NPN uptake assay; assay type: cell-based, Pseudomonas aeruginosa; conditions: sub-MIC; concentration giving maximal increase in NPN uptake
Experimental: as §3

[6] = test system: proton motive force-driven multidrug efflux pump of P. mirabilis HI4320; assay: Ethidium bromide (EtBr) efflux assay; assay type: cell-based, Proteus mirabilis; conditions: PRMSE, catechol at 0.25 times the MIC; CCCP 100 μM; untreated cells 35.9
Experimental: An overnight grown culture of each strain is diluted 1:100 using MHB-II broth to a final volume of 10 mL and grown to an OD600 of 0.8-1.0 (at 37° C., 150 rpm). […] The tubes are incubated for 1 h (37° C., 150 rpm). The inoculum is then adjusted to 0.4 OD600 with MHB-II broth containing 5 μM EtBr and 2 mL aliquots of this mixture are pelleted (5000×g, 10 min at 4° C.). The pellets are incubated on ice immediately, resuspended in 1 mL of MHB-II, and aliquoted (200 μL) into a polystyrene 96 well black, clear-bottom plate (Corning™, Fisher Scientific, ON, Canada). EtBr efflux from the cells is monitored at room temperature using the microplate reader (ex/em 530/600 nm). Readings are taken at 5 min intervals for 1 h to monitor efflux pump activity. The background fluorescence of the medium is subtracted from all measurements and the assay is repeated independently in triplicate.

[7] = test system: cell membrane of P. aeruginosa PA14; assay: BacLight membrane integrity assay; assay type: cell-based, Pseudomonas aeruginosa; conditions: PRMSE, catechol at 4 × MIC for 10 min; CTAB 10 μM; untreated = 100
Experimental: (§4) The BacLight kit (L-13152, Invitrogen™, Life Technologies Inc., Canada) is used to assess cell membrane damage. Overnight bacterial cultures are diluted 1:40 in fresh MHBII broth to a final volume of 5 mL, grown to an OD600 of 0.5-0.6, washed with filter-sterilized 10 mM phosphate buffered saline (PBS, pH 7.0) and resuspended in 1/10 of the original volume. […] Cultures are incubated at room temperature (21±2° C.) on a tube rocker for 10 min. At the end of the incubation period, an aliquot is taken for CFU counts and the remaining suspension is washed with 10 mM PBS and resuspended to an OD600) of 0.3. An aliquot (100 μL) of each bacterial suspension is removed and added to a 96-well, black, clear-bottom plate (Corning™, Fisher Scientific, ON, Canada) along with an equal volume of the BacLight™ reagent (2× stock solution, L13152, Invitrogen™, Life Technologies Inc., Canada) and the plates are incubated for 10 min at room temperature in the dark. At the end of the incubation period, fluorescence intensity is recorded for both kit components, SYTO-9 (ex/em 485/530 nm) and propidium iodide (ex/em 485/645 nm), using the microplate reader. Fluorescence readings from samples are normalized to the values obtained from untreated control to determine the ratio of membrane compromised cells to cells with intact membrane. Cetyltrimethylammonium bromide (CTAB, Sigma-Aldrich Canada), a cationic detergent that is known to cause membrane damage, is used at concentration of 10 μM as a positive control for membrane disruption.

[8] = test system: cell membrane of P. aeruginosa PAO1; assay: BacLight membrane integrity assay; assay type: cell-based, Pseudomonas aeruginosa; conditions: PRMSE, catechol at 4 × MIC for 10 min; CTAB 10 μM; untreated = 100
Experimental: as §4

[9] = test system: E. coli CFT073; assay: Bacterial colony forming ability (CFU counts after exposure); assay type: cell-based, Escherichia coli; conditions: log decrease vs untreated control, 4 × MIC, 10 min, CTAB 10 μM
Experimental: as §4

[10] = test system: P. aeruginosa PA14; assay: as above; assay type: cell-based, Pseudomonas aeruginosa; conditions: log decrease vs untreated control, 4 × MIC, 10 min, CTAB 10 μM
Experimental: as §4

[11] = test system: P. aeruginosa PAO1; assay: as above; assay type: cell-based, Pseudomonas aeruginosa; conditions: log decrease vs untreated control; 4 × MIC, 10 min; CTAB 10 μM
Experimental: as §4

[12] = ciprofloxacin in combination with the labelled phenolic constituent
[13] = labelled constituent + gallic acid, * = synergistic
[14] = labelled constituent combined with gallic acid
[15] = labelled phenolic constituent in combination with ciprofloxacin

`Oc1ccccc1O` [catechol, 1,2-dihydroxybenzene] was tested, and the FIC of ciprofloxacin [1, 12] was 0.25, the “FICI, gallic acid” value [1, 13] was 0.37* and the “FIC, gallic acid” value [1, 14] was 0.13. For the same compound, the FIC of compound [1, 15] was 0.25, the FIC of ciprofloxacin [2, 12] was 0.25 and the “FICI, gallic acid” value [2, 13] was 0.37*. The “FIC, gallic acid” value [2, 14] was 0.25, the FIC of compound [2, 15] was 0.25 and the FIC of ciprofloxacin [3, 12] was 0.25. For the same compound, the “FICI, gallic acid” value [3, 13] was 0.5*, the “FIC, gallic acid” value [3, 14] was 0.25 and the FIC of compound [3, 15] was 0.25. For the same compound, the Minimum permeabilization concentration [4] was 0.5 mg/mL, the Minimum permeabilization concentration [5] was 0.5 mg/mL and the Efflux pump activity [6] was 33.9%. The “% cells with uncompromised membrane” value [7] was 78.6%, the “% cells with uncompromised membrane” value [8] was 80.4% and the “Bacterial colony forming ability (Δ log CFU mL^−1)” value [9] was 2.3 Δ log CFU mL^−1. For the same compound, the “Bacterial colony forming ability (Δ log CFU mL^−1)” value ([9]; listed as Catechol) was ≥ 1.5 Δ log CFU mL^−1, the “Bacterial colony forming ability (Δ log CFU mL^−1)” value [10] was 1.9 Δ log CFU mL^−1 and the “Bacterial colony forming ability (Δ log CFU mL^−1)” value ([10]; listed as Catechol) was ≥ 1.5 Δ log CFU mL^−1. For the same compound, the “Bacterial colony forming ability (Δ log CFU mL^−1)” value [11] was 1.5 Δ log CFU mL^−1.
